Each structure is given as a SMILES string.

What all share (assay): Kinase-Glo Luminescent Kinase Assay
What all share (assay type): biochemical

In one experiment the target is T1, Aurora A (Homo sapiens, UniProt O14965).
T1 construct: purchased Promega
T1 sequence (O14965 1-403): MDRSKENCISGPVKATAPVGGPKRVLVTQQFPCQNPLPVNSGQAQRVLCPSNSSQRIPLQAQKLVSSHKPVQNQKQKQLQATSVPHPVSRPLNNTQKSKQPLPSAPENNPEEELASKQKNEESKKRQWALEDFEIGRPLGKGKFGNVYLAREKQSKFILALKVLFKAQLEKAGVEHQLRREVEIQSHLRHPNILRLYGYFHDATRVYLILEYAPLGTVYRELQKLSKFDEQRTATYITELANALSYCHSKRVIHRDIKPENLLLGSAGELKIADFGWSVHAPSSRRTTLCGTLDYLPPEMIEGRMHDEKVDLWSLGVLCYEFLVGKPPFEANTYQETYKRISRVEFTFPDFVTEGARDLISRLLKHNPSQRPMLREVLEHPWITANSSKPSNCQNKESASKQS
On the procedure: (§1) SI-12 was also tested for its ability to disrupt kinase activity. The effects of the compound were tested on a panel of 24 kinases using a Kinase-Glo Luminescent Kinase Assay system (Promega; Madison, Wis.). SI-12 was tested, at concentrations of 1000 nM, 50 nM, and 5 nM, for its ability to interfere with recombinant kinases in the assay system. The amount of ATP to ADP conversion in the presence of SI-12 was compared to a DMSO vehicle control. The values shown in Table 3 represent the percentage of kinase activity compared to a DMSO vehicle control.
(§2) In Table 3, “−” represents less than 20% inhibition; “+” represents from 20% to 40% inhibition; “++” represents from 40% to 60% inhibition; and “+++” represents greater than 60% inhibition.

The target of the next experiment is T2, CHK1 (Homo sapiens, UniProt O14757).
T2 construct: purchased Promega
T2 sequence (O14757 1-476): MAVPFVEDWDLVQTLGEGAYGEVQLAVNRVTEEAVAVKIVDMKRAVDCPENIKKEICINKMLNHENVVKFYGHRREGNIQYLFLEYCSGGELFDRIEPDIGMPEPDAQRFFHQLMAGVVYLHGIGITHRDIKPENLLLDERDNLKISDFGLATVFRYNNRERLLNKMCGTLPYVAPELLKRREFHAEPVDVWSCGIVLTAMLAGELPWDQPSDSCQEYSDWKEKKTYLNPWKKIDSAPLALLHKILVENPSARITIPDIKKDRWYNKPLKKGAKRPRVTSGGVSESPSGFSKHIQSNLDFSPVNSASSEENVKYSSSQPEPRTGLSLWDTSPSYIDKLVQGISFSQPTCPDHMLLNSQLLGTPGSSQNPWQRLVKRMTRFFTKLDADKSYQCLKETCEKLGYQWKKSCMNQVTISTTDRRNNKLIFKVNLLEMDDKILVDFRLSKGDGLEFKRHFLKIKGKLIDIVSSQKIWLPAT
How it is done: as §1, §2

A further experiment has as its target T3, JAK3 (Homo sapiens, UniProt P52333).
T3 construct: purchased Promega
T3 sequence (P52333 1-1124): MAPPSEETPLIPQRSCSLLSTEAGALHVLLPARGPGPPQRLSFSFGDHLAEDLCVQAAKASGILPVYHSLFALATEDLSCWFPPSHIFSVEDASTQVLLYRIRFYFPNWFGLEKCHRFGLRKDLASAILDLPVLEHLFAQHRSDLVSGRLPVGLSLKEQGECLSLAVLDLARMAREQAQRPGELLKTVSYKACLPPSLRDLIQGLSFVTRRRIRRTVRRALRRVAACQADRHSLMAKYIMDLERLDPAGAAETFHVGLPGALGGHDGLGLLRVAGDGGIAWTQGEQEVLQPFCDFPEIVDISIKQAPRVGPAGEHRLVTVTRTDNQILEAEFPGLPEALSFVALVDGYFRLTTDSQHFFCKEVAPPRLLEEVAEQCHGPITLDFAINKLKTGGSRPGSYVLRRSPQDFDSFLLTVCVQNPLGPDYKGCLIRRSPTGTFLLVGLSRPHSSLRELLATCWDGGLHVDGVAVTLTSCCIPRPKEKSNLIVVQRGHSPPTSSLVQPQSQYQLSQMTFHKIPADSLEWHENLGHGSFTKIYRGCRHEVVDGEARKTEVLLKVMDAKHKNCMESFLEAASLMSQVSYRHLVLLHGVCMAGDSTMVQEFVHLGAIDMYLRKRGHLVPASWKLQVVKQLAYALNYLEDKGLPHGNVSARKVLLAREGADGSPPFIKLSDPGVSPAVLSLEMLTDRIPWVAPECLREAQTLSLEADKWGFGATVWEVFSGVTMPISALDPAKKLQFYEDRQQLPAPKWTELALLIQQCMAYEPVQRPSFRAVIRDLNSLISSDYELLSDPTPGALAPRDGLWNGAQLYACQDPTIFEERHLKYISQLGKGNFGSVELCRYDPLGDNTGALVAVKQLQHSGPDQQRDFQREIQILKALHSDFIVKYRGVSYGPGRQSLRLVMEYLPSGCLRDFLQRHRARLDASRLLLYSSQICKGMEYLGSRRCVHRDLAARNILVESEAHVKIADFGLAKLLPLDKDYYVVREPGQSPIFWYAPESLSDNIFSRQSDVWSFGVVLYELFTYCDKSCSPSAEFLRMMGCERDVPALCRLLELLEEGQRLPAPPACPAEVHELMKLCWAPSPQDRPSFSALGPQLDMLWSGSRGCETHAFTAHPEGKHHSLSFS
How it is done:
as §1, §2

In another experiment the target is T4, TAK1-TAB1 (Homo sapiens, UniProt O43318).
T4 construct: purchased Promega
T4 sequence (O43318 with tags, fused parts or gaps limits assumed): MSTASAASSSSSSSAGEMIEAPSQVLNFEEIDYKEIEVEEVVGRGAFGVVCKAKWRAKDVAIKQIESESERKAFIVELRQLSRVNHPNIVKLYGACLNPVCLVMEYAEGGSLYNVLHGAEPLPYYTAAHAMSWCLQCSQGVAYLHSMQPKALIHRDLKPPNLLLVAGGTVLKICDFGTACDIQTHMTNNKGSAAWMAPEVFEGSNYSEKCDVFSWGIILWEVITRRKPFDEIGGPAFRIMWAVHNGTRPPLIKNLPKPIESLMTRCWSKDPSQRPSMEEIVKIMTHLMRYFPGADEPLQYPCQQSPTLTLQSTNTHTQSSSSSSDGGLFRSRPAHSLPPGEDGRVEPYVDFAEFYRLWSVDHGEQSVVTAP
On the procedure:
as §1, §2

Take `CC(=NNc1nc2cc(F)c(F)cc2n1C)c1ccc(F)cn1` [SI-12]: the “Aurora A kinase inhibition” value on Aurora A (5 nM), at Aurora A (50 nM) and on Aurora A (1000 nM) was “− (less than 20% inhibition)” in each case. The CHK1 kinase inhibition entry on CHK1 (5 nM), on CHK1 (50 nM) and on CHK1 (1000 nM) was “− (less than 20% inhibition)” throughout. The JAK3 kinase inhibition entry at JAK3 (5 nM) is recorded as “− (less than 20% inhibition)”; at JAK3 (50 nM) it was “+ (from 20% to 40% inhibition)”; on JAK3 (1000 nM) it was “+ (from 20% to 40% inhibition)”. Moreover, the TAK1-TAB1 kinase inhibition entry at TAK1-TAB1 (5 nM), at TAK1-TAB1 (50 nM) and at TAK1-TAB1 (1000 nM) was “− (less than 20% inhibition)” throughout.
